Values quoted from earlier work, collected in patent US20110184379A1, “METHOD AND SYSTEM TO DEFINE PATIENT SPECIFIC THERAPEUTIC REGIMENS BY MEANS OF PHARMACOKINETIC AND PHARMACODYNAMIC TOOLS” (MEDTRONIC, INC., priority 2008, published 2011).
Like-named read-outs stand apart in the source and are kept apart here.

How the values were obtained:
HCV [1] = settings: for viral load reduction: oral
HCV [2] = system: HCV
HCV [3] = system: HCV; remark: listed apart in the source
HCV [4] = system: HCV; remark: listed apart in the source
[5] = system: Hepatitis C virus replicon
HCV genotype 1 = settings: 5 days of dosing
[6] = preliminary review of blinded data, four completed cohorts
[7] = system: genotype 1 HCV polymerases
HCV genotype-1 = settings: 14-day course
[8] = system: chronic hepatitis C virus (HCV) genotype 1; settings: for SVR at 24 weeks after the end of treatment (SVR 24): 28-week Boceprevir arm
HCV [9] = system: HCV; remark: listed apart in the source

In the case of `[N-]=[N+]=N[C@]1(CO)O[C@@H](n2ccc(N)nc2=O)[C@H](O)[C@@H]1O` [R1626, 4′-azidocytidine], the viral load reduction (HCV [1]; 100 mg dose (so in the source)) is listed as 1.2 log 10, the viral load reduction (HCV [1]; 300 mg dose (so in the source)) is listed as 2.6 log 10 and the viral load reduction (HCV [1]; 4500 mg dose) is listed as 3.7 log 10. The viral resistance (HCV [1]; human, in vivo) was “No viral resistance was found”, the tolerability (HCV [1]; increasing adverse events at the highest dose (4500 mg)) was “generally well-tolerated” and the “End-of-Treatment Response” value (HCV [2]; 4 weeks R1626 + Peginterferon Alfa-2a (40 kd) + Ribavirin, then 44 weeks Peginterferon Alfa-2a + Ribavirin) was 84%. The barrier to resistance (HCV [2]; in vivo) was “high barrier to resistance”.

For `NC(=O)c1ncn([C@@H]2O[C@H](CO)[C@@H](O)[C@H]2O)n1` [ribavirin, 1-β-D-ribofuranosyl-1H-1,2,4-triazole-3-carboxamide], the efficacy (HCV [3]; monotherapy) is given as “negligible efficacy”.

For interferon-α, the “therapeutic effectiveness of the combination” value (HCV [3]; ribavirin combined with interferon-α, genotype 1 population) is listed as 29%, the “delay before HCV RNA decline” value (HCV [4]; IFN or IFN plus ribavirin) is listed as 7 to 10 h and the “fall of HCV RNA in the first phase (1-2 days), on average” value (HCV [4]; genotype 1 infected patients) is listed as 1-2 logs.

For `COc1ccc2c(O[C@@H]3C[C@H]4C(=O)N[C@]5(C(=O)NS(=O)(=O)C6CC6)C[C@H]5/C=C\CCCCN(C)C(=O)[C@@H]4C3)cc(-c3nc(C(C)C)cs3)nc2c1C` [TMC435350], the appearance of drug-resistance ([5]; combination with interferon) is listed as “suppress the appearance of drug-resistance”, the RNA reduction ([5]; combination with interferon, replicon model) is listed as greater than 4 logs and the “effect on Hepatitis C virus replication” value ([5]; replicon experiments, via protease inhibition) is listed as “reduce the amount of Hepatitis C virus replication”. The tolerability (HCV genotype 1) was “well tolerated” and the antiviral activity (HCV genotype 1; genotype 1 infected individuals) was “strong and rapid antiviral activity”.

In the case of `CC(C)(C)OC(=O)N[C@H]1CCCCC/C=C\[C@@H]2C[C@@]2(C(=O)NS(=O)(=O)C2CC2)NC(=O)[C@@H]2C[C@@H](OC(=O)N3Cc4cccc(F)c4C3)CN2C1=O` [ITMN-191], the safety and tolerability (preliminary safety data, doses intended for Phase 1b) is given as “well tolerated and safe”, the serious adverse events (single ascending dose, healthy subjects) is given as “no serious adverse events were reported” and the safety and tolerability [6] is given as “safe and well-tolerated”.

For `COC[C@H]1C[C@@](Cn2cccn2)(C(=O)O)N(C(=O)c2ccc(C(C)(C)C)c(OC)c2)[C@H]1c1nccs1` [GSK625433], the “inhibition of genotype 1 HCV polymerases” value [7] is listed as “highly potent and selective inhibitor” and the “interaction with interferon in vitro” value [7] is listed as “synergistic”.

For `CC(C)(C)NC(=O)N[C@H](C(=O)N1C[C@H]2[C@@H]([C@H]1C(=O)NC(CC1CCC1)C(=O)C(N)=O)C2(C)C)C(C)(C)C` (some centres unmarked) [SCH503034], the “maximum HCV RNA reduction” value (HCV genotype-1; 400 mg group) is listed as “more than 2 logs”, the safety and tolerability (HCV genotype-1) is listed as “safe and well-tolerated with no serious adverse events” and the “SVR at 24 weeks after the end of treatment (SVR 24)” value ([8]; lead-in) is listed as 56%. For the same compound, the “SVR at 24 weeks after the end of treatment (SVR 24)” value ([8]; no lead-in) was 55%, the “SVR rate at 12 weeks after the end of treatment (SVR 12)” value ([8]; 48-week regimen, 4 weeks PEGINTRON + REBETOL lead-in before Boceprevir 800 mg TID, ITT) was 74% and the “SVR 12” value ([8]; 48 weeks Boceprevir + PEGIntron + REBETOL from the beginning, no P/R lead-in) was 66%. The “SVR (ITT) in patients with rapid virologic response (RVR)” value ([8]; lead-in, 28-week regimen) was 82% and the “SVR (ITT) in patients with rapid virologic response (RVR)” value ([8]; lead-in, 48 week regimen) was 92%.

In the case of `CC(C)C(=O)OC[C@H]1O[C@@H](n2ccc(N)nc2=O)[C@](C)(F)[C@@H]1OC(=O)C(C)C` [R71278], the “decrease in HCV RNA (viral load)” value (HCV [9]; 1,500 mg twice-daily arm) is listed as greater than 99%, the “antiviral activity across all dosing arms” value (HCV [9]; in vivo) is listed as “dose-dependent antiviral activity” and the safety and tolerability (HCV [9]; in vivo) is listed as “generally safe and well-tolerated with no serious adverse events”.
